Results published in the supplement of paper PMC11451515.

Test system: SEM cells
Assay: cell viability relative to DMSO control; higher = less cytotoxic
Conditions: 48 h
Method in brief: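 Viability is a per-plate percentage relative to DMSO wells, with cell-free wells as background. CellTiter-Glo One luminescence was read after 48 h at 37°C on 1536-well plates (5 μl) of NOMO1 or SEM (500 cells/well) or P12-Ichikawa (1000 cells/well) leukemia cells. The cells had been adapted for at least four passages in each medium and pin-dosed with library compounds in DMSO from 47 μM to 0.79 nM in 11 threefold steps.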

[1] = HPLM + 10% dialyzed FBS, 0.000781 µM
[2] = HPLM + 10% dialyzed FBS, 0.00234 µM
[3] = HPLM + 10% dialyzed FBS, 0.00702 µM
[4] = HPLM + 10% dialyzed FBS, 0.0211 µM
[5] = HPLM + 10% dialyzed FBS, 0.0632 µM
[6] = HPLM + 10% dialyzed FBS, 0.19 µM
[7] = HPLM + 10% dialyzed FBS, 0.569 µM
[8] = HPLM + 10% dialyzed FBS, 1.71 µM
[9] = HPLM + 10% dialyzed FBS, 5.12 µM
[10] = HPLM + 10% dialyzed FBS, 15.4 µM
[11] = HPLM + 10% dialyzed FBS, 46.1 µM
[12] = RPMI 5 mM glucose + 10% FBS, 0.000781 µM
[13] = RPMI 5 mM glucose + 10% FBS, 0.00234 µM
[14] = RPMI 5 mM glucose + 10% FBS, 0.00702 µM
[15] = RPMI 5 mM glucose + 10% FBS, 0.0211 µM
[16] = RPMI 5 mM glucose + 10% FBS, 0.0632 µM
[17] = RPMI 5 mM glucose + 10% FBS, 0.19 µM
[18] = RPMI 5 mM glucose + 10% FBS, 0.569 µM
[19] = RPMI 5 mM glucose + 10% FBS, 1.71 µM
[20] = RPMI 5 mM glucose + 10% FBS, 5.12 µM
[21] = RPMI 5 mM glucose + 10% FBS, 15.4 µM
[22] = RPMI 5 mM glucose + 10% FBS, 46.1 µM
[23] = RPMI 5 mM glucose + 10% dialyzed FBS, 0.000781 µM
[24] = RPMI 5 mM glucose + 10% dialyzed FBS, 0.00234 µM
[25] = RPMI 5 mM glucose + 10% dialyzed FBS, 0.00702 µM
[26] = RPMI 5 mM glucose + 10% dialyzed FBS, 0.0211 µM
[27] = RPMI 5 mM glucose + 10% dialyzed FBS, 0.0632 µM
[28] = RPMI 5 mM glucose + 10% dialyzed FBS, 0.19 µM
[29] = RPMI 5 mM glucose + 10% dialyzed FBS, 0.569 µM
[30] = RPMI 5 mM glucose + 10% dialyzed FBS, 1.71 µM
[31] = RPMI 5 mM glucose + 10% dialyzed FBS, 5.12 µM
[32] = RPMI 5 mM glucose + 10% dialyzed FBS, 15.4 µM
[33] = RPMI 5 mM glucose + 10% dialyzed FBS, 46.1 µM

Clc1ccc(COC(Cn2ccnc2)c2ccc(Cl)cc2Cl)cc1 (centres undefined)
cell viability [1]: 72.9% | cell viability [2]: 82.3% | cell viability [3]: 89.9% | cell viability [4]: 97.2% | cell viability [5]: 83.6% | cell viability [6]: 84.7% | cell viability [7]: 80.8% | cell viability [8]: 88.9% | cell viability [9]: 92.5% | cell viability [10]: 87.9% | cell viability [11]: 80.5% | cell viability [12]: 116% | cell viability [13]: 110% | cell viability [14]: 121% | cell viability [15]: 114% | cell viability [16]: 119% | cell viability [17]: 102% | cell viability [18]: 119% | cell viability [19]: 107% | cell viability [20]: 113% | cell viability [21]: 107% | cell viability [22]: 82% | cell viability [23]: 76.8% | cell viability [24]: 78.8% | cell viability [25]: 113% | cell viability [26]: 85% | cell viability [27]: 92.2% | cell viability [28]: 88.7% | cell viability [29]: 111% | cell viability [30]: 94.2% | cell viability [31]: 101% | cell viability [32]: 79.7% | cell viability [33]: 74.5%

Cc1c(OCC(F)(F)F)ccnc1C[S+]([O-])c1nc2ccccc2[nH]1 (centres undefined)
cell viability [1]: 96.5% | cell viability [2]: 93.5% | cell viability [3]: 96.4% | cell viability [4]: 97.1% | cell viability [5]: 99% | cell viability [6]: 99.9% | cell viability [7]: 106% | cell viability [8]: 117% | cell viability [9]: 106% | cell viability [10]: 104% | cell viability [11]: 125% | cell viability [12]: 116% | cell viability [13]: 110% | cell viability [14]: 99.7% | cell viability [15]: 107% | cell viability [16]: 105% | cell viability [17]: 126% | cell viability [18]: 111% | cell viability [19]: 124% | cell viability [20]: 115% | cell viability [21]: 104% | cell viability [22]: 101% | cell viability [23]: 97.7% | cell viability [24]: 109% | cell viability [25]: 112% | cell viability [26]: 111% | cell viability [27]: 109% | cell viability [28]: 122% | cell viability [29]: 112% | cell viability [30]: 121% | cell viability [31]: 131% | cell viability [32]: 121% | cell viability [33]: 97.7%

CCc1cc(/C(C)=N/OCc2ccc(C3CCCCC3)c(C(F)(F)F)c2)ccc1CN1CC(C(=O)O)C1
cell viability [1]: 104% | cell viability [2]: 117% | cell viability [3]: 112% | cell viability [4]: 109% | cell viability [5]: 104% | cell viability [6]: 115% | cell viability [7]: 120% | cell viability [8]: 117% | cell viability [9]: 99.8% | cell viability [10]: 87.1% | cell viability [11]: 82.9% | cell viability [12]: 92% | cell viability [13]: 108% | cell viability [14]: 109% | cell viability [15]: 109% | cell viability [16]: 105% | cell viability [17]: 109% | cell viability [18]: 106% | cell viability [19]: 99.9% | cell viability [20]: 96.2% | cell viability [21]: 82.2% | cell viability [22]: 70.2% | cell viability [23]: 114% | cell viability [24]: 116% | cell viability [25]: 125% | cell viability [26]: 123% | cell viability [27]: 126% | cell viability [28]: 124% | cell viability [29]: 137% | cell viability [30]: 132% | cell viability [31]: 118% | cell viability [32]: 106% | cell viability [33]: 94%

O=C1c2cccc(O)c2C(=O)c2c(O)cc(CO)cc21
cell viability [1]: 101% | cell viability [2]: 97.7% | cell viability [3]: 107% | cell viability [4]: 119% | cell viability [5]: 111% | cell viability [6]: 34% | cell viability [7]: 110% | cell viability [8]: 105% | cell viability [9]: 102% | cell viability [10]: 97.4% | cell viability [11]: 109% | cell viability [12]: 105% | cell viability [13]: 103% | cell viability [14]: 99.9% | cell viability [15]: 110% | cell viability [16]: 93% | cell viability [17]: 45% | cell viability [18]: 101% | cell viability [19]: 84.2% | cell viability [20]: 92.3% | cell viability [21]: 103% | cell viability [22]: 103% | cell viability [23]: 102% | cell viability [24]: 97.2% | cell viability [25]: 100% | cell viability [26]: 91.7% | cell viability [27]: 91.2% | cell viability [28]: 45.1% | cell viability [29]: 85.9% | cell viability [30]: 86.4% | cell viability [31]: 94.2% | cell viability [32]: 92.6% | cell viability [33]: 85.3%

CN(C)c1nc(N(C)C)nc(N(C)C)n1
cell viability [1]: 92.3% | cell viability [2]: 97.3% | cell viability [3]: 110% | cell viability [4]: 95.1% | cell viability [5]: 103% | cell viability [6]: 104% | cell viability [7]: 106% | cell viability [8]: 92.5% | cell viability [9]: 97.6% | cell viability [10]: 92.2% | cell viability [11]: 84.9% | cell viability [12]: 107% | cell viability [13]: 111% | cell viability [14]: 102% | cell viability [15]: 105% | cell viability [16]: 107% | cell viability [17]: 101% | cell viability [18]: 102% | cell viability [19]: 100% | cell viability [20]: 90.1% | cell viability [21]: 104% | cell viability [22]: 93.4% | cell viability [23]: 102% | cell viability [24]: 115% | cell viability [25]: 102% | cell viability [26]: 104% | cell viability [27]: 108% | cell viability [28]: 110% | cell viability [29]: 109% | cell viability [30]: 94.3% | cell viability [31]: 100% | cell viability [32]: 98.6% | cell viability [33]: 93.1%

COc1ccc2cccc(CCNC(C)=O)c2c1
cell viability [1]: 105% | cell viability [2]: 104% | cell viability [3]: 107% | cell viability [4]: 111% | cell viability [5]: 109% | cell viability [6]: 97.6% | cell viability [7]: 112% | cell viability [8]: 114% | cell viability [9]: 109% | cell viability [10]: 49.2% | cell viability [11]: 105% | cell viability [12]: 110% | cell viability [13]: 83.4% | cell viability [14]: 107% | cell viability [15]: 100% | cell viability [16]: 105% | cell viability [17]: 90% | cell viability [18]: 109% | cell viability [19]: 106% | cell viability [20]: 110% | cell viability [21]: 40.7% | cell viability [22]: 95% | cell viability [23]: 107% | cell viability [24]: 106% | cell viability [25]: 101% | cell viability [26]: 111% | cell viability [27]: 120% | cell viability [28]: 94.8% | cell viability [29]: 94.7% | cell viability [30]: 104% | cell viability [31]: 124% | cell viability [32]: 37.4% | cell viability [33]: 101%

NC\1=N\C(=O)N(\C=N1)[C@H]2C[C@H](O)[C@@H](CO)O2
cell viability [1]: 57.8% | cell viability [2]: 100% | cell viability [3]: 94.7% | cell viability [4]: 97.2% | cell viability [5]: 118% | cell viability [6]: 101% | cell viability [7]: 89.8% | cell viability [8]: 71.3% | cell viability [9]: 41% | cell viability [10]: 29.5% | cell viability [11]: 16.5% | cell viability [12]: 54.1% | cell viability [13]: 91.3% | cell viability [14]: 86% | cell viability [15]: 92.9% | cell viability [16]: 107% | cell viability [17]: 92% | cell viability [18]: 81.8% | cell viability [19]: 63.8% | cell viability [20]: 32.2% | cell viability [21]: 22.2% | cell viability [22]: 12.1% | cell viability [23]: 55.1% | cell viability [24]: 99.4% | cell viability [25]: 81% | cell viability [26]: 84.3% | cell viability [27]: 91.4% | cell viability [28]: 93.3% | cell viability [29]: 67.5% | cell viability [30]: 49.1% | cell viability [31]: 32% | cell viability [32]: 27.5% | cell viability [33]: 21.2%

CCOP(=O)(OCC)C(C)NC(=O)N(CCCl)N=O (centres undefined)
cell viability [1]: 101% | cell viability [2]: 109% | cell viability [3]: 125% | cell viability [4]: 114% | cell viability [5]: 126% | cell viability [6]: 128% | cell viability [7]: 129% | cell viability [8]: 122% | cell viability [9]: 119% | cell viability [10]: 127% | cell viability [11]: 94.9% | cell viability [12]: 90.7% | cell viability [13]: 98.1% | cell viability [14]: 98.7% | cell viability [15]: 104% | cell viability [16]: 101% | cell viability [17]: 111% | cell viability [18]: 78.4% | cell viability [19]: 95.5% | cell viability [20]: 87.1% | cell viability [21]: 84.6% | cell viability [22]: 74.4% | cell viability [23]: 108% | cell viability [24]: 97% | cell viability [25]: 116% | cell viability [26]: 122% | cell viability [27]: 112% | cell viability [28]: 127% | cell viability [29]: 127% | cell viability [30]: 137% | cell viability [31]: 107% | cell viability [32]: 103% | cell viability [33]: 81.2%
